Source: ChEMBL document CHEMBL1201862, “PubChem BioAssay data set” (2004)
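Cultured in 96-well plates, cells were exposed to test compound for 48 hours across five concentrations. GI50 = concentration required for 50% inhibition of growth.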 Activity calls are given as the source filed them. Rule as the data show it: active = GI50 up to about 1.1 µM and inactive = higher.

Key:
Experiment in all cases: growth of human tumour cells (NCI), 48 h
OVCAR-3 = test system: OVCAR-3
SNB-19 = test system: SNB-19
LOX IMVI = test system: LOX IMVI
M14 = test system: M14
EKVX = test system: EKVX
MOLT-4 = test system: MOLT-4
SK-OV-3 = test system: SK-OV-3
HCC 2998 = test system: HCC 2998
HOP-62 = test system: HOP-62
IGROV-1 = test system: IGROV-1
CAKI-1 = test system: CAKI-1
SN12C = test system: SN12C
A549 = test system: A549
SF-295 = test system: SF-295
NCI-H23 = test system: NCI-H23
RPMI-8226 = test system: RPMI-8226
HCT-116 = test system: HCT-116
RXF 393 = test system: RXF 393
SNB-75 = test system: SNB-75
K562 = test system: K562

SMILES | GI50 (OVCAR-3) | GI50 (SNB-19) | GI50 (LOX IMVI) | GI50 (M14) | GI50 (EKVX) | GI50 (MOLT-4) | GI50 (SK-OV-3) | GI50 (HCC 2998) | GI50 (HOP-62) | GI50 (IGROV-1) | GI50 (CAKI-1) | GI50 (SN12C) | GI50 (A549) | GI50 (SF-295) | GI50 (NCI-H23) | GI50 (RPMI-8226) | GI50 (HCT-116) | GI50 (RXF 393) | GI50 (SNB-75) | GI50 (K562)
Brc1ccc2[nH]cc(-c3csc(-c4c[nH]c5ccccc45)n3)c2c1 | 3.01 µM (inactive) | 3.32 µM (inactive) | 2.1 µM (inactive) | 1.98 µM (inactive) | 2.69 µM (inactive) | 2.05 µM (inactive) | 7.52 µM (inactive) | 2.08 µM (inactive) | 4.34 µM (inactive) | 2.2 µM (inactive) | 2.9 µM (inactive) | 3.66 µM (inactive) | 3.67 µM (inactive) | 2.42 µM (inactive) | 2.39 µM (inactive) | 3.08 µM (inactive) | 2.47 µM (inactive) | 3.61 µM (inactive) | 10.1 µM (inactive) | 3.03 µM (inactive)
COc1ccc(-c2cc(-c3ccccc3)[nH]c(=S)c2C#N)cc1 | 11.9 µM (inactive) | 40.4 µM (inactive) | 20.7 µM (inactive) | 25.4 µM (inactive) | 55.8 µM (inactive) | 17.4 µM (inactive) | 30.8 µM (inactive) | 28.2 µM (inactive) | 3.85 µM (inactive) | 26.4 µM (inactive) | 61 µM (inactive) | 41.2 µM (inactive) | 18.8 µM (inactive) | 27.4 µM (inactive) | 21.8 µM (inactive) | 20.7 µM (inactive) | 34.9 µM (inactive) | 39.8 µM (inactive) | 31 µM (inactive) | 22.8 µM (inactive)
O=C(/C(=N/Nc1cn[nH]c(=O)c1Cl)c1ccccc1)c1ccccc1 | 18 µM (inactive) | 91.6 µM (inactive) | 18.8 µM (inactive) | 46.8 µM (inactive) | 24 µM (inactive) | 23.2 µM (inactive) | 39.5 µM (inactive) | 26.9 µM (inactive) | 44.8 µM (inactive) | 18.9 µM (inactive) | 19.7 µM (inactive) | 27.4 µM (inactive) | 18.3 µM (inactive) | 27.6 µM (inactive) | 22.4 µM (inactive) | 24.6 µM (inactive) | 23.1 µM (inactive) | 0.326 µM (active) | 8.79 µM (inactive) | 24.5 µM (inactive)
CN(NC1=NCCO1)c1ccc2ccccc2c1 | 23.6 µM (inactive) | 54.7 µM (inactive) | 37.4 µM (inactive) | 36 µM (inactive) | 39.5 µM (inactive) | 42.2 µM (inactive) | 39.1 µM (inactive) | 38.8 µM (inactive) | 80.7 µM (inactive) | 39.7 µM (inactive) | 32.9 µM (inactive) | 62.8 µM (inactive) | 60.3 µM (inactive) | > 100 µM (inactive) | 32.1 µM (inactive) | 76.7 µM (inactive) | 35 µM (inactive) | 38.6 µM (inactive) | 17.5 µM (inactive) | 28.3 µM (inactive)
CN1CCN(c2c(Cl)cc(Cl)c3[nH]c4ccccc4c(=O)c23)CC1 | 10.2 µM (inactive) | 6.4 µM (inactive) | 3.64 µM (inactive) | 6.01 µM (inactive) | 10.5 µM (inactive) | 1.18 µM (inactive) | 11.1 µM (inactive) | 5.66 µM (inactive) | 6.15 µM (inactive) | 4.46 µM (inactive) | 5.68 µM (inactive) | 6.12 µM (inactive) | 5.56 µM (inactive) | 5.85 µM (inactive) | 8.87 µM (inactive) | 3.1 µM (inactive) | 3.21 µM (inactive) | 12.6 µM (inactive) | 9.91 µM (inactive) | 3.66 µM (inactive)
CC(=O)OCC1OC(OC2CC3C(C)(C)C(OC(C)=O)CC[C@]3(C)C3CCC45CC4(CC[C@H]5C(C)CC(O)[C@@H](O)C(C)(C)O)[C@]23C)C(O)C(O)C1O (stereo not given in full) | 7.19 µM (inactive) | 7.08 µM (inactive) | 6.95 µM (inactive) | 6.95 µM (inactive) | 7 µM (inactive) | 2.36 µM (inactive) | 5.83 µM (inactive) | 6.84 µM (inactive) | 5.86 µM (inactive) | 7.36 µM (inactive) | 7.21 µM (inactive) | 7.05 µM (inactive) | 8.02 µM (inactive) | 7.93 µM (inactive) | 8.53 µM (inactive) | 0.173 µM (active) | 7.64 µM (inactive) | 7.57 µM (inactive) | 6.18 µM (inactive) | 5.55 µM (inactive)
CN1C(=O)c2c(c3c4ccccc4n(C4OC(CO)C(O)C(O)C4O)c3c3[nH]c4ccccc4c23)C1=O (stereo not given) | 2.02 µM (inactive) | 0.849 µM (active) | 1.2 µM (inactive) | 2.34 µM (inactive) | 3.02 µM (inactive) | 0.624 µM (active) | 2.92 µM (inactive) | 2.07 µM (inactive) | 2.93 µM (inactive) | 0.9 µM (active) | 1.9 µM (inactive) | 2.82 µM (inactive) | 11.8 µM (inactive) | 3.63 µM (inactive) | 2.59 µM (inactive) | 16.1 µM (inactive) | 0.718 µM (active) | 3.55 µM (inactive) | 3.95 µM (inactive) | 0.736 µM (active)
